Experimental data: patent US8759384B2, “Oxo-imidazolyl compounds” (priority 2008, dated 2014)

How the values were obtained:
[1] = tested on: Staphylococcus aureus MRSA; assay: microbe, parasite or virus in culture; format: cell-based; details: Conc. 3 μM, read-out: Inhibitive activity MRSA (% inhibition of growth)
B. anthracis ΔSterne = assay: microbe, parasite or virus in culture; format: cell-based; details: Bacillus anthracis; Conc. 3 μM; read-out: Inhibitive activity Anthracis (% inhibition of growth)

| SMILES | inhibition at 3 µM [1] | inhibition at 3 µM (B. anthracis ΔSterne) |
| --- | --- | --- |
| O=C(O)C(Cc1ccccc1)N1C(=O)/C(=C\c2ccc(-c3ccc(Cl)c(Cl)c3)o2)NC1=S (centres unmarked) [EX. 6, 2-(4-((5-(3,4-Dichlorophenyl)furan-2-yl)methylene)-5-oxo-2-thioxoimidazolidin-1-yl)-3-phenylpropanoic acid] | -3.72% | – |
| O=C(O)C(Cc1ccccc1)N1C(=O)/C(=C\c2ccc(-c3ccc(Br)cc3)s2)NC1=S (centres unmarked) [EX. 7, 2-(4-((5-(4-Bromophenyl)thiophen-2-yl)methylene)-5-oxo-2-thioxoimidazolidin-1-yl)-3-phenylpropanoic acid] | – | 67.9% |
